Test results: US11186610B2, “Crystal of glutathione trisulfide dihydrate and method for producing same” (KYOWA HAKKO BIO CO., LTD., priority 2016, dated 2021)

Assay: Hygroscopicity / storage stability: weight change on storage at 40° C. and 75% relative humidity
Type: physicochemical
Settings: for Weight change with the elapse of time (in words): storage 0-4 hours at 40° C.
Procedure: 1 g of the crystal of glutathione trisulfide dihydrate produced in Example 2 was dissolved in water, and the volume was made up to 100 mL. The aqueous solution was filtered with a 0.45 μm of filter and then lyophilized to obtain a whitish transparent powder.
Subsequently, hygroscopicity of the obtained non-crystalline amorphous form of glutathione trisulfide and the crystal of glutathione trisulfide dihydrate produced in Example 2 was compared.
About 100 mg of each sample was weighed with a precise balance and then filled in a glass container, and after storage in THE051A (manufactured by Advantec Toyo Kaisha, Ltd.) under conditions of 40° C. and 75% relative humidity, the sample was weighed again to calculate a weight change rate. The sample weight after each elapsed time was measured with respect to 100% weight at the start of test.

[1] = as compared with the non-crystalline amorphous form, 40° C.

N[C@@H](CCC(=O)N[C@@H](CSSSC[C@H](NC(=O)CC[C@H](N)C(=O)O)C(=O)NCC(=O)O)C(=O)NCC(=O)O)C(=O)O [non-crystalline amorphous form, glutathione trisulfide]
Sample weight with respect to 100% weight at the start of test (elapsed time 0 hour, 40° C.): 100.0%
Sample weight with respect to 100% weight at the start of test (elapsed time 0.5 hour, 40° C.): 106.7%
Sample weight with respect to 100% weight at the start of test (elapsed time 1 hour, 40° C.): 107.7%
Sample weight with respect to 100% weight at the start of test (elapsed time 2 hours, 40° C.): 108.7%
Sample weight with respect to 100% weight at the start of test (elapsed time 4 hours, 40° C.): 108.7%
Weight change with the elapse of time (in words): increases with the elapse of time

N[C@@H](CCC(=O)N[C@@H](CSSSC[C@H](NC(=O)CC[C@H](N)C(=O)O)C(=O)NCC(=O)O)C(=O)NCC(=O)O)C(=O)O.O.O [crystal of dehydrate, glutathione trisulfide dihydrate]
Hygroscopicity (in words) [1]: low hygroscopicity
Storage stability (in words) [1]: excellent storage stability
Sample weight with respect to 100% weight at the start of test (elapsed time 0 hour, 40° C.): 100.0%
Sample weight with respect to 100% weight at the start of test (elapsed time 0.5 hour, 40° C.): 100.0%
Sample weight with respect to 100% weight at the start of test (elapsed time 1 hour, 40° C.): 100.0%
Sample weight with respect to 100% weight at the start of test (elapsed time 2 hours, 40° C.): 100.0%
Sample weight with respect to 100% weight at the start of test (elapsed time 4 hours, 40° C.): 100.0%
Weight change with the elapse of time (in words): almost not changed
